Experimental data: PubChem BioAssay (NCI)
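Cells were grown in 96-well plates and exposed to each compound for 48 hours at five concentrations; endpoints were interpolated linearly between bracketing concentrations, or set to the highest concentration if not reached. At the TGI there is no net growth.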

Experiments:
Assay in all cases: growth of human tumour cells (NCI), 48 h
[1] = tested on: HS 578T breast
[2] = tested on: SK-MEL-2 melanoma
[3] = tested on: T-47D breast
[4] = tested on: SF-295 CNS
[5] = tested on: 786-0 renal
[6] = tested on: SNB-75 CNS
[7] = tested on: SF-539 CNS
[8] = tested on: IGROV1 ovarian
[9] = tested on: OVCAR-3 ovarian
[10] = tested on: U251 CNS
[11] = tested on: ACHN renal
[12] = tested on: MDA-MB-435
[13] = tested on: PC-3 prostate
[14] = tested on: NCI-H522 lung
[15] = tested on: TK-10 renal
[16] = tested on: KM12 colon
[17] = tested on: EKVX NSCLC
[18] = tested on: MCF7 breast
[19] = tested on: SK-OV-3 ovarian
[20] = tested on: A498 renal
[21] = tested on: SW-620 colon
[22] = tested on: RXF 393 renal
[23] = tested on: OVCAR-4 ovarian
[24] = tested on: MDA-N
[25] = tested on: SF-268 CNS
[26] = tested on: HCC-2998 colon
[27] = tested on: LOX IMVI melanoma
[28] = tested on: UACC-62 melanoma
[29] = tested on: NCI-H226 lung
[30] = tested on: NCI/ADR-RES ovarian
[31] = tested on: M14 melanoma
[32] = tested on: K-562 leukemia
[33] = tested on: NCI-H23 lung
[34] = tested on: HOP-62 NSCLC
[35] = tested on: HCT-116 colon
[36] = tested on: HOP-92 NSCLC
[37] = tested on: MDA-MB-231 breast
[38] = tested on: BT-549 breast
[39] = tested on: OVCAR-5 ovarian
[40] = tested on: MOLT-4 leukemia
[41] = tested on: COLO 205 colon
[42] = tested on: SR leukemia
[43] = tested on: HT29 colon
[44] = tested on: RPMI-8226 leukemia
[45] = tested on: OVCAR-8 ovarian
[46] = tested on: SN12C renal
[47] = tested on: UACC-257 melanoma
[48] = tested on: SK-MEL-5 melanoma
[49] = tested on: CAKI-1 renal
[50] = tested on: UO-31 renal
[51] = tested on: DU-145 prostate
[52] = tested on: SNB-19 CNS
[53] = tested on: MALME-3M melanoma
[54] = tested on: HCT-15 colon
[55] = tested on: HL-60(TB) leukemia
[56] = tested on: A549 NSCLC
[57] = tested on: CCRF-CEM leukemia

In the case of `CCCN(C(=O)c1ccccc1)C(C#N)c1ccc(C(C#N)N(CCC)C(=O)c2ccccc2)cc1` (configuration not stated), the TGI [1] is reported as 86.7 µM, the TGI [2] is reported as > 100 µM and the TGI [3] is reported as 85.7 µM. The TGI [4] was > 100 µM, the TGI [5] was > 100 µM and the TGI [6] was 73.3 µM. For the same compound, the TGI [7] was 87.6 µM, the TGI [8] was > 100 µM and the TGI [9] was > 100 µM. The TGI [10] was > 100 µM, the TGI [11] was > 100 µM and the TGI [12] was > 100 µM. The TGI [13] was > 100 µM, the TGI [14] was > 100 µM and the TGI [15] was > 100 µM. The TGI [16] was > 100 µM, the TGI [17] was > 100 µM and the TGI [18] was > 100 µM. The TGI [19] was > 100 µM, the TGI [20] was > 100 µM and the TGI [21] was > 100 µM. For the same compound, the TGI [22] was > 100 µM, the TGI [23] was 66.7 µM and the TGI [24] was > 100 µM. For the same compound, the TGI [25] was > 100 µM, the TGI [26] was > 100 µM and the TGI [27] was > 100 µM. For the same compound, the TGI [28] was > 100 µM, the TGI [29] was 65.3 µM and the TGI [30] was > 100 µM. The TGI [31] was > 100 µM, the TGI [32] was > 100 µM and the TGI [33] was > 100 µM. For the same compound, the TGI [34] was 99.3 µM, the TGI [35] was > 100 µM and the TGI [36] was 64.4 µM. For the same compound, the TGI [37] was > 100 µM, the TGI [38] was > 100 µM and the TGI [39] was > 100 µM. For the same compound, the TGI [40] was > 100 µM, the TGI [41] was > 100 µM and the TGI [42] was > 100 µM. The TGI [43] was > 100 µM, the TGI [44] was > 100 µM and the TGI [45] was > 100 µM. For the same compound, the TGI [46] was > 100 µM, the TGI [47] was > 100 µM and the TGI [48] was > 100 µM. For the same compound, the TGI [49] was > 100 µM, the TGI [50] was > 100 µM and the TGI [51] was > 100 µM. For the same compound, the TGI [52] was 74.9 µM, the TGI [53] was > 100 µM and the TGI [54] was > 100 µM. The TGI [55] was > 100 µM, the TGI [56] was > 100 µM and the TGI [57] was > 100 µM.
